Assay results published in US7388002B2, “Nucleosides, preparation thereof and use as inhibitors of RNA viral polymerases” (BioCryst Pharmaceuticals, Inc., priority 2001, dated 2008).

What follows are compounds tested on stably HCV RNA-replicating cell line, AVA5 (assay: Antiviral Activity (HCV Replicon Assay)). Details: intracellular HCV RNA levels (blot hybridization, normalized to B-actin RNA) in AVA5 cells (Huh7-derived), compound once daily for three days, read 24 hours after last dose.
Type: cell-based
Description: HCV NS5B Polymerase Assay
Antiviral activity of the test compounds is assessed (Okuse et al., Antiviral Res. 2005, 65, 23-34) in the stably HCV RNA-replicating cell line, AVA5, derived by transfection of the human hepatoblastoma cell line, Huh7 (Blight et al., Sci. 2000, 290, 1972). Compounds are added to dividing cultures once daily for three days. Media is changed with each addition of compound. Cultures generally start the assay at 30-50% confluence and reach confluence during the last day of treatment. Intracellular HCV RNA levels and cytotoxicity are assessed 24 hours after the last dose of compound.
Triplicate cultures for HCV RNA levels (on 48-well and 96-well plates) and cytotoxicity (on 96-well plates) are used. A total of six untreated control cultures, and triplicate cultures treated with α-interferon and ribavirin serve as positive antiviral and toxicity controls.
Intracellular HCV RNA levels are measured using a conventional blot hybridization method in which HCV RNA levels are normalized to the levels of B-actin RNA in each individual culture (Okuse et al., Antivir. Res. 2005, 65, 23-34). Cytotoxicity is measured using a neutral red dye uptake assay (Korba and Gerin, Antivir. Res. 1992, 19, 55). HCV RNA levels in the treated cultures are expressed as a percentage of the mean levels of RNA detected in untreated cultures.
For `C=C(CCOCP(=O)(OCC(=O)OC(C)(C)C)OCC(=O)OC(C)(C)C)n1cnc2c(N)ncnc21` [Compound 34h, (±)-9-[(1-Methylene)(3-(di-tert-butyloxycarbonylmethylphosphono)methoxy)propyl]-adenine], the “% Inhibition at 10 μM” value was 35%. In the case of `CC(C)(C)OC(=O)COP(=O)(COCCC(CN)n1cnc2c(N)ncnc21)OCC(=O)OC(C)(C)C` (racemic) [Compound 34d, (±)-9-[(1-Aminomethyl)(3-(di-tert-butyloxycarbonylmethylphosphono)methoxy)propyl]-adenine], the “% Inhibition at 10 μM” value is reported as 60%. `CC(C)(C)OC(=O)COP(=O)(COCCC(CO)n1cnc2c(-c3ccsc3)ncnc21)OCC(=O)OC(C)(C)C` (racemic) [Compound 76b, (±)-9-[(1-Hydroxymethyl)(3-(di-tert-butyloxycarbonylmethylphosphono)methoxy)propyl]-6-(3-thiophenyl)purine] was tested, and the “% Inhibition at 10 μM” value was 18%. With `CC(O)C(COCP(=O)(OCC(=O)OC(C)(C)C)OCC(=O)OC(C)(C)C)n1cnc2c(-c3ccccc3)ncnc21` (racemic) [Compound 79a, (±)-9-[(1-Hydroxyethyl)(3-(di-tert-butyloxycarbonylmethylphosphono)methoxy)ethyl]-6-phenylpurine] the “% Inhibition at 10 μM” value was 48%. `CC(C)(C)OC(=O)COP(=O)(COCCC(CCO)n1cnc2c(N)ncnc21)OCC(=O)OC(C)(C)C` (racemic) [Compound 34e, (±)-9-[(1-(2-Hydroxy)ethyl)(3-(di-tert-butyloxycarbonylmethylphosphono)methoxy)propyl]-adenine] was tested, and the “% Inhibition at 10 μM” value was 41%. `CC(C)(C)OC(=O)COP(=O)(COCCC(CO)n1cnc2c(-c3ccccc3)ncnc21)OCC(=O)OC(C)(C)C` (racemic) [Compound 76a, (±)-9-[(1-Hydroxymethyl)(3-(di-tert-butyloxycarbonylmethylphosphono)methoxy)propyl]-6-phenylpurine] was tested, and the “% Inhibition at 10 μM” value was 35%. For `CC(C)(C)OC(=O)COP(=O)(COCCC(CO)n1cnc2c(NC3CCCC3)ncnc21)OCC(=O)OC(C)(C)C` (racemic) [Compound 73k, (±)-9-[(1-Hydroxymethyl)(3-(di-tert-butyloxycarbonylmethylphosphono)methoxy)propyl]-6-cyclopentylaminopurine], the “% Inhibition at 10 μM” value was 36%. In the case of `CC(O)CC(COCP(=O)(OCOC(=O)C(C)(C)C)OCOC(=O)C(C)(C)C)n1cnc2c(N)ncnc21` (racemic) [Compound 56f, (±)-9-[1-[(Di-tert-butylcarbonyloxymethylphosphonomethoxy)methyl][(3-hydroxy)butyl]adenine], the “% Inhibition at 10 μM” value is reported as 62%.
